What was measured:
[1] = biological target: T1, Sterol 14α-demethylase (CYP51) from Candida albicans (CaCYP51) (Candida albicans, UniProt P10613); test: UV-visible difference spectroscopy (type II spectral response) with isolated CYP51; assay type: binding
T1 construct: gene ERG11

[2] = biological target: T2, human CYP51 (hCYP51) (Homo sapiens, UniProt Q16850); test: Kd reported; presumably UV-visible difference spectroscopy (type II), human assay not described in Methods; assay type: binding
T2 construct: gene CYP51A1
T2 sequence (Q16850 1-509): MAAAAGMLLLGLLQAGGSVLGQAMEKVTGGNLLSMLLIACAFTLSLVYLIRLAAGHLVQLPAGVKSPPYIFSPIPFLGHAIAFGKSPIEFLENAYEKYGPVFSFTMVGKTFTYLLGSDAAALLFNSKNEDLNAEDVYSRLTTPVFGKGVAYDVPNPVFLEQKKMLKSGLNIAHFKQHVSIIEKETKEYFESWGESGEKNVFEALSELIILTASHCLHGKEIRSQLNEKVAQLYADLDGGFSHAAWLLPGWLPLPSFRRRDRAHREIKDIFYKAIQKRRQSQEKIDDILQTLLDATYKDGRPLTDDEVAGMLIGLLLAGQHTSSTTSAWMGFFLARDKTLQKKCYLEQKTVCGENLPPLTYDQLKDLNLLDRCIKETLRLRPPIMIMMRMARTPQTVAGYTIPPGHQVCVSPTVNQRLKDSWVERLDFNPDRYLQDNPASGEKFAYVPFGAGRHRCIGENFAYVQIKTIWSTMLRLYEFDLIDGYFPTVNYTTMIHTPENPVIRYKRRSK

T1 sequence (P10613 whole entry): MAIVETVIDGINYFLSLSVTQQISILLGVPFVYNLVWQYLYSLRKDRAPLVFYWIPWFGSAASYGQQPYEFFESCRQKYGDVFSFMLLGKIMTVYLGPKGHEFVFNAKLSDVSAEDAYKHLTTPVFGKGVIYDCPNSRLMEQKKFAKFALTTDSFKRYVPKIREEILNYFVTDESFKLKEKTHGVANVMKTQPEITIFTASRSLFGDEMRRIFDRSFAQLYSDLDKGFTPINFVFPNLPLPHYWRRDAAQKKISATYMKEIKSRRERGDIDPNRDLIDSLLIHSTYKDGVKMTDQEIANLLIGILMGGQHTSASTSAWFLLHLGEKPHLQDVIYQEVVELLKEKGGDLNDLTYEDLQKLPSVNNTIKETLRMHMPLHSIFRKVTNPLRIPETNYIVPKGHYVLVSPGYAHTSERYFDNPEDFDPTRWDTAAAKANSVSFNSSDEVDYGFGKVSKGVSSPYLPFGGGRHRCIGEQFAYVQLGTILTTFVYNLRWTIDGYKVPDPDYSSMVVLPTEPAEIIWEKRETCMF

## CC(=O)N1CCN(c2ccc(OC[C@H]3CO[C@](Cn4ccnc4)(c4ccc(Cl)cc4Cl)O3)cc2)CC1 (racemic) [ketoconazole]
[1]
  Kd: < 50 nM
[2]
  Kd: < 50 nM

Reference: PMC5547395 (EXCLI Journal, 2017)
